Measured values reported in patent US9238650B2, “Solid forms of a pyrido-pyrimidinium inner salt” (E. I. DU PONT DE NEMOURS AND COMPANY, priority 2012, dated 2016).
“Also recorded” adds a separate entry of the source. Where a name gives a salt, the structure may show the parent alone.

How the values were obtained:
Assay type in all cases: physicochemical
[1] = Solubility of Compound 1 in the test solvent, filtrate analyzed by HPLC; details: 22° C., 5 days, label = starting polymorph form(s)
Description: HPLC was used to determine the purity of Compound 1 and intermediates. An Agilent 1100/1200 series HPLC system with DAD/UV detector and reverse-phase column (Agilent Zorbax® SB C8 (4.6×150) mm, 3.5 μm, Part No. 863953-906) was used. Flow rate was 1 mL/min, run time 27 min, injection volume 3.0 μL, and the column oven temperature was 40° C. A mobile phase gradient according to Table 1 was used wherein mobile phase A was 0.03% by volume orthophosphoric acid and mobile Phase B was acetonitrile (HPLC grade). Mobile phase A was prepared by thoroughly mixing 0.3 mL of orthophosphoric acid (AR grade) with 999.7 mL of deionized water. Standard solutions were prepared by weighing 22.0±2.0 mg of the analytical standard in duplicate into separate 50-mL volumetric flasks, dissolving and diluting with the diluent. Samples were prepared by weighing 40.0±2.0 mg of the sample into a 100 mL standard volumetric flask, dissolving and diluting with the diluent. For analysis, the HPLC system and column were equilibrated with initial mobile phase. In the chromatographic sequence, blank samples, standard samples and test samples were run. The retention time for Compound 1 was about 22.2 min. Peaks appearing in the blank sample were not integrated, all other peaks were integrated and a % purity reported from the sample chromatogram. For wt % determination the concentration of test sample was calibrated against the standard sample.
(§1) Polymorph Forms A and B of Compound 1 were subjected to non-competitive and competitive interconversion experiments. […] For the competitive experiments, polymorph Forms A and B were mixed together and studied for the potential conversion to the more thermodynamically stable form. The starting polymorph form(s) were mixed with various solvents for 5 days at 22° C., and then filtered. The filtrate was analyzed by HPLC to determine the solubility of Compound 1 in the test solvent. The solids were dried and analyzed by pXRD.

[2] = Relative stability (non-competitive and competitive interconversion) of polymorph Forms A and B in various solvents at 22° C., solids analyzed by pXRD; details: concluded from conversion of Form B to Form A in solvents at 22° C.
Description: as §1
A detailed description of the individual experiments for Examples 6a to 6j is given below.
In Example 6a, Form B of Compound 1 (0.3 g) was mixed with acetone (5 g) at 22° C. for 5 days. The slurry was then filtered through a syringe filter (0.45 μm glass fiber, type Whatman GE Autovial) and dried in a vacuum oven at 40° C. for 48 hours. Analysis by pXRD indicated Form A of compound 1.
In Example 6b, Form B (0.3 g) and Form A (0.01 g) of Compound 1 were mixed with acetone (5 g) at 22° C. for 5 days. The slurry was then filtered through a syringe filter (0.45 μm glass fiber, type Whatman GE Autovial) and dried in a vacuum oven at 40° C. for 48 hours. Analysis by pXRD indicated Form A of Compound 1.
In Example 6c, Form B (0.3 g) of Compound 1 was mixed with tetrahydrofuran (5 g) at 22° C. for 5 days. […]

[3] = Solid-liquid separation efficiency: time to complete filtration on a lab nutsche filter; details: for Filtration time: time required to complete filtration of 90 g from reaction mass
Description: In separate experiments, about 90 grams of Polymorph Forms A and B of Compound 1 were prepared according to PREPARATION EXAMPLE 1 and 2, respectively. The solids were filtered from their reaction mass using a lab nutsche filter. The times to complete the filtrations (indicated by no further liquid dripping from the filter) were measured and are reported in Table 12.

[4] = Particle size distribution by laser diffraction particle size analyzer after dispersion in deionized water; details: dispersed in deionized water; for D50: median particle size; for D[4, 3]: volume-weighted mean particle size
Description: After the observation of increased settling velocity of Polymorph Form A compared to Form B (see CHARACTERIZATION EXAMPLE 9), the particle size distributions of the two forms were measured. Form B of Compound 1 was prepared according to PREPARATION EXAMPLE 2. Some of the Form B thus prepared was converted to Form A according to PREPARATION EXAMPLE 5. The particle size distribution of both Form A and B samples were determined after dispersion in deionized water using a laser diffraction particle size analyzer (model Mastersizer 2000 by Malvern Instruments, Malvern, UK). The particle size distribution parameters D10, D50 and D90 are reported in Table 13 below, wherein D50 represents the median particle size of the distribution, i.e. 50% of the particles are smaller and 50% are larger than that size. D10 indicates the particle size at which 10% of all particles are smaller than that size. Similarly, D90 indicates the particle size at which 90% of all particles are smaller than that size. The volume-weighted mean particle sizes D[4,3] are also reported.

[5] = Temperature-dependent X-ray powder diffraction of polymorph Form A; details: pure solid, heated from 25° C. to the melting point at 10° C. per minute
Description: To assess the stability of polymorph Form A of Compound 1 with respect to temperature, X-ray powder diffraction patterns were obtained while heating a sample of Form A from 25° C. to above its melting point. The measurement was conducted at the 5-IDD beam line at the Advanced Photon Source synchrotron located at the Argonne National Laboratory (Argonne, Ill., USA). A Differential-Scanning calorimeter (DSC, Model DSC600, Linkam Scientific Instruments, Tadworth, U.K.) was mounted in vertical orientation to allow insertion of the DSC into the X-ray beam. The DSC was positioned in the beam line to accept a 100-200 μm square beam under high vacuum. The standard quartz window was replaced with polyimide film (Kapton®, 8 μm thickness, DuPont, Wilmington, Del., USA). An internal thermocouple was installed for temperature recording. A circular charged couple device (CCD) detector (Model Mar165, 165 mm diameter, Marresearch GmbH, Norderstedt, Germany) was used to detect the X-rays scattered from the sample. The detector was equipped with an aluminum cone that covered the detector and extended 100 mm from the face of the detector. This cone was quipped with a beam stop support and 5×3 mm lead beam stop. The cone was continuously purged with helium to minimize air scattering. […]

[6] = Crystal density by helium gas pygnometry
Description: However, once Form B has converted to Form A in the slurry, the particles start to settle to the bottom of the flask rapidly after stirring is turned off indicating increased particle size of the Form A crystals. […] High particle size and settling velocities are important process advantages for solid-liquid separation operations in commercial manufacturing. Large average particle size improve filtration and centrifugation steps by increased filtration speeds, higher throughputs, lower propensity to filter cake cracking and resulting filtrate by-passing, increased cake wash efficiency and increased product purity.

SMILES	Concentration of Compound 1 in filtrate ([1]; acetone) [wt %]	Concentration of Compound 1 in filtrate ([1]; ethyl acetate) [wt %]	Concentration of Compound 1 in filtrate ([1]; tetrahydrofuran) [wt %]	Concentration of Compound 1 in filtrate ([1]; toluene) [wt %]	Concentration of Compound 1 in filtrate ([1]; water) [wt %]	Relative thermodynamic stability [2]	Filtration time [3] [min]	D10 [4] [μm]	D90 [4] [μm]	D50 [4] [μm]	D[4, 3] [4] [μm]	Stability of the crystal form with respect to temperature (pXRD while heating) [5]	density [6] [g/mL]	Filtration time relative to Polymorph Form A ([3]; about 90 grams)
Cc1cccn2c(=O)c(-c3cc(Cl)cc(Cl)c3)c([O-])[n+](Cc3cnc(Cl)s3)c12 [B + seed A, 1-[(2-chloro-5-thiazolyl)methyl]-3-(3,5-dichlorophenyl)-2-hydroxy-9-methyl-4-oxo-4H-pyrido[1,2-a]pyrimidinium inner salt]	0.34	0.09	1.01	0.023	<0.01									
Cc1cccn2c(=O)c(-c3cc(Cl)cc(Cl)c3)c([O-])[n+](Cc3cnc(Cl)s3)c12 [Form A, 1-[(2-chloro-5-thiazolyl)methyl]-3-(3,5-dichlorophenyl)-2-hydroxy-9-methyl-4-oxo-4H-pyrido[1,2-a]pyrimidinium inner salt]						more thermodynamically stable than Form B	0.9	13	73	34	39	no crystal form conversion to another polymorph occurred; also recorded: physically and chemically stable in its pure solid form	1.597	
Cc1cccn2c(=O)c(-c3cc(Cl)cc(Cl)c3)c([O-])[n+](Cc3cnc(Cl)s3)c12 [Form B, 1-[(2-chloro-5-thiazolyl)methyl]-3-(3,5-dichlorophenyl)-2-hydroxy-9-methyl-4-oxo-4H-pyrido[1,2-a]pyrimidinium inner salt]	0.34	0.18	1.03	0.049	<0.01		3.0	0.6	19	3.2	6.8		1.582	more than 3 times
